Experimental data as given in patent US20180064665A1 (UNIVERSITY-INDUSTRY COOPERATION GROUP OF KYUNG HEE …, priority 2015, published 2018).
Where two headings read alike, the source gives them in different places.

What was measured:
Assay type in all cases: cell-based, mouse
[1] = Measurement of cell viability (MTT); conditions: mouse, Raw264.7 macrophage cells, Raw264.7 cells, with LPS 1 μg/mL, mean of three measurements, read-out: Cell viability (IC50 for cell toxicity)
Protocol: (§1) Raw264.7 cells (macrophage cell line from mouse) were obtained from Korean Cell Line Bank (KCLB) and cultured in Dulbecco's modified Eagle's medium containing 10% FBS, penicillin (100 units/ml), streptomycin sulfate (100 μg/ml) at 37° C. and 5% CO2 in humidified environment.
(§2) Cells were collected by centrifugation and scraping, and seeded at 1×10^5 cells/well in a 96 well plate containing 100 μl of RPMI 1640 medium with 10% FBS. 3β, 4β-epoxy-8α-isobutyryloxyguaia-1(10), 11, (13)-diene-12.6α-olide was dissolved in dimethylsulfoxide (DMSO) solvent and the concentration of DMSO was not more than 0.1% in all experiments. Next day, test compounds and LPS (1 μg/mL) were added and the plate were cultured for 24 hrs. After washing cells once, 50 μl of the medium containing 5 mg/ml MTT but without FBS was added and cells were cultured at 37° C. for 4 hrs. And then, the medium was removed, formazan blue formed in the cells was dissolved in 100 μl of DMSO, and an absorbance was measured at 540 nm to obtain IC50 values for cell toxicity. […] The results are shown in the above Table 1 and the values are means of three measurements.

PGE2 production = assay: Inhibitory activity on PGE2 production in LPS-treated Raw264.7 cells (PGE2 immunoassay); conditions: LPS 1 μg/mL; for IC50: mean of three measurements, read-out: Inhibition of PGE2 production IC50
Protocol: Raw264.7 cells (macrophage cell line from mouse) were obtained from Korean Cell Line Bank (KCLB) and cultured in Dulbecco's modified Eagle's medium (DMEM) containing 10% Fetal Bovine Serum (FBS), penicillin (100 units/mL), streptomycin sulfate (100 μg/mL) at 37° C. and 5% CO2 in humidified environment. RAW264.7 cells at 5×10^5 cells/mL were seeded at 1 mL/well in 24 wells using DMEM, left overnight, replaced with a fresh medium and then treated with a test compound of an appropriate concentration. The cells were incubated for 1 hr and then treated with LPS at 1 μg/mL and incubated for 24 hrs (or proper period). A supernatant was taken and diluted five times. 150 μL of an analysis buffer was added to Non Specific Binding (NSB) well, and 100 μL of an analysis buffer was added to zero point standard (B0) well. 100 μL of a standard sample was added to the other wells and 50 μL of PGE2 conjugate was added (excluding NSB). 50 μL of PGE2 antibody solution was added and wells were shaken for 2 hrs. Each well was suctioned and washed with a wash buffer five times. Each 200 μL of para-Nitrophenyl phosphate (pNPP) substrate was added to the all wells and the wells were stored in a bench at room temperature for 1 hr. 50 μL of stop solution was added and an absorbance was measured at 405 nm. The amount of PGE2 was quantified using the measured absorbance and a standard curve and compared to a group treated with LPS only to obtain a concentration inhibiting 50% (IC50). The results are shown in the following Table 1 and the presented values are means of three measurements.

Raw264.7 cells = assay: Measurement of cell viability (MTT); conditions: with LPS 1 μg/mL, 24 hrs, mean of three measurements, read-out: Cell viability (IC50 for cell toxicity)
Protocol: as §1, §2

Molecule | IC50 (Raw264.7 cells) [nM] | IC50 (PGE2 production) [nM] | Inhibition of PGE2 production % (PGE2 production; compound at 0.1 μM) | further results
O=C(Oc1ccccc1)N(NS(=O)(=O)c1ccccc1)c1ccccc1 [Comparative Example 1, N-phenyl-N′-(phenoxycarbonyl)-phenylsulfonhydrazide, reference compound] | – | – | – | IC50 at 24 h [1]: > 10000 nM; IC50 (PGE2 production; Mus musculus): 5700 nM; inhibition at 10 µM (PGE2 production; Mus musculus, compound at 10 μM): 84.4%
Cc1ccc(OC(=O)NN(c2ccccc2)S(=O)(=O)c2ccc(C)cc2)cc1 [Example 2, N-phenyl-N′-(4-methylphenoxycarbonyl)-4-methylphenylsulfonhydrazide] | > 10000 | 1010 | – | Inhibition of PGE2 production % (PGE2 production; compound at 1 μM): 49.7 (1)^ %
COc1ccccc1OC(=O)NN(c1ccccc1)S(=O)(=O)c1ccc(C)cc1 [Example 3, N-phenyl-N′-(2-methoxyphenoxycarbonyl)-4-methylphenylsulfonhydrazide] | > 100 | 34 | 91.9 (0.1) % | –
COc1ccc(S(=O)(=O)N(NC(=O)Oc2ccc(OCc3ccccc3)cc2)c2ccccc2)cc1 [Example 4, N-phenyl-N′-(4-benzyloxyphenoxycarbonyl)-4-methoxyphenylsulfonhydrazide] | > 1000 | 50 | 62.8 (0.1) % | –
CCOc1ccc(OC(=O)NN(c2ccccc2)S(=O)(=O)c2ccc(OC)cc2)cc1 [Example 5, N-phenyl-N′-(4-ethoxyphenoxycarbonyl)-4-methoxyphenylsulfonhydrazide] | > 100 | 20.5 | 94.1 (0.1) % | –
COc1ccc(S(=O)(=O)N(NC(=O)Oc2ccc(Oc3ccccc3)cc2)c2ccccc2)cc1 [Example 6, N-phenyl-N′-(4-phenoxyphenoxycarbonyl)-4-methoxyphenylsulfonhydrazide] | > 100 | 17.1 | 93.4 (0.1) % | –
CCc1ccc(OC(=O)NN(c2ccccc2)S(=O)(=O)c2ccc(OC)cc2)cc1 [Example 7, N-phenyl-N′-(4-ethylphenoxycarbonyl)-4-methoxyphenylsulfonhydrazide] | > 100 | 28.5 | 90.9 (0.1) % | –
Cc1ccc(S(=O)(=O)N(NC(=O)Oc2ccc(OCc3ccccc3)cc2)c2ccccc2)cc1 [Example 8, N-phenyl-N′-(4-benzyloxyphenoxycarbonyl)-4-methylphenylsulfonhydrazide] | > 100 | 32.6 | 66.6 (0.1) % | –
COc1ccc(S(=O)(=O)N(NC(=O)Oc2ccc3c(c2)CCC3)c2ccccc2)cc1 [Example 9, N-phenyl-N′-(2,3-dihydro-1H-inden-5-oxycarbonyl)-4-methoxyphenylsulfonhydrazide] | > 100 | 4.5 | – | Inhibition of PGE2 production % (PGE2 production; compound at 0.01 μM): 79.5 (0.01) %
O=C(NN(c1ccccc1)S(=O)(=O)c1ccc(Cl)cc1)Oc1ccccc1 [Example 10, N-phenyl-N′-phenoxycarbonyl-4-chlorophenylsulfonhydrazide] | > 10000 | 5.42 | – | Inhibition of PGE2 production % (PGE2 production; compound at 0.01 μM): 81.8 (0.01) %
COc1ccccc1OC(=O)NN(c1ccccc1)S(=O)(=O)c1ccc(Cl)cc1 [Example 11, N-phenyl-N′-(2-methoxyphenoxycarbonyl)-4-chlorophenylsulfonhydrazide] | > 10000 | 3.52 | – | Inhibition of PGE2 production % (PGE2 production; compound at 0.01 μM): 85.9 (0.01) %
CCc1ccc(OC(=O)NN(c2ccccc2)S(=O)(=O)c2ccc(Cl)cc2)cc1 [Example 12, N-phenyl-N′-(4-ethylphenoxycarbonyl)-4-chlorophenylsulfonhydrazide] | > 10000 | 3.7 | – | Inhibition of PGE2 production % (PGE2 production; compound at 0.01 μM): 80.5 (0.01) %
CCOc1ccc(OC(=O)NN(c2ccccc2)S(=O)(=O)c2ccc(Cl)cc2)cc1 [Example 13, N-phenyl-N′-(4-ethoxyphenoxycarbonyl)-4-chlorophenylsulfonhydrazide] | > 10000 | 5.02 | – | Inhibition of PGE2 production % (PGE2 production; compound at 0.01 μM): 74.8 (0.01) %
O=C(NN(c1ccccc1)S(=O)(=O)c1ccc(Cl)cc1)Oc1ccc(Oc2ccccc2)cc1 [Example 14, N-phenyl-N′-(4-phenoxyphenoxycarbonyl)-4-chlorophenylsulfonhydrazide] | > 10000 | 5.09 | – | Inhibition of PGE2 production % (PGE2 production; compound at 0.01 μM): 67.8 (0.01) %
O=C(NN(c1ccccc1)S(=O)(=O)c1ccc(Cl)cc1)Oc1ccc(OCc2ccccc2)cc1 [Example 15, N-phenyl-N′-(4-benzyloxyphenoxycarbonyl)-4-chlorophenylsulfonhydrazide] | > 10000 | 3.42 | – | Inhibition of PGE2 production % (PGE2 production; compound at 0.01 μM): 84.5 (0.01) %
CCCc1ccc(S(=O)(=O)N(NC(=O)Oc2ccc(Oc3ccccc3)cc2)c2ccccc2)cc1 [Example 20, N-phenyl-N′-(4-phenoxyphenoxycarbonyl)-4-n-propylphenylsulfonhydrazide] | > 10000 | 134 | 45.4 (0.1) % | –
O=C(NN(c1ccccc1)S(=O)(=O)c1ccc(C(F)(F)F)cc1)Oc1ccc(OCc2ccccc2)cc1 [Example 21, N-phenyl-N′-(4-benzyloxyphenoxycarbonyl)-4-trifluoromethylphenylsulfonhydrazide] | > 100 | 47.1 | 65.5 (0.1) % | –
CC(C)(C)c1ccc(S(=O)(=O)N(NC(=O)Oc2ccc(OCc3ccccc3)cc2)c2ccccc2)cc1 [Example 22, N-phenyl-N′-(4-benzyloxyphenoxycarbonyl)-4-t-butylphenylsulfonhydrazide] | > 100 | 56.9 | 69.8 (0.1) % | –
CC(C)(C)c1ccc(S(=O)(=O)N(NC(=O)Oc2ccc(Oc3ccccc3)cc2)c2ccccc2)cc1 [Example 23, N-phenyl-N′-(4-phenoxyphenoxycarbonyl)-4-t-butylphenylsulfonhydrazide] | > 1000 | 99.6 | 67.9 (0.1) % | –
CC(C)c1ccc(S(=O)(=O)N(NC(=O)Oc2ccc(Oc3ccccc3)cc2)c2ccccc2)cc1 [Example 24, N-phenyl-N′-(4-phenoxyphenoxycarbonyl)-4-i-propylphenylsulfonhydrazide] | > 1000 | 130 | 65.4 (0.1) % | –
Cc1ccc(S(=O)(=O)N(NC(=O)Oc2ccc3c(c2)CCC3)c2ccccc2)cc1 [Example 25, N-phenyl-N′-(2,3-dihydro-1H-inden-5-oxycarbonyl)-4-methylphenylsulfonhydrazide] | > 1000 | 66.7 | 40.4 (0.1) % | –
O=C(NN(c1ccccc1)S(=O)(=O)c1ccc(Cl)cc1)Oc1ccc2c(c1)CCC2 [Example 26, N-phenyl-N′-(2,3-dihydro-1H-inden-5-oxycarbonyl)-4-chlorophenylsulfonhydrazide] | > 1000 | 70.5 | 45.8 (0.1) % | –
O=C(NN(c1ccccc1)S(=O)(=O)c1ccc(C(F)(F)F)cc1)Oc1ccc2c(c1)CCC2 [Example 27, N-phenyl-N′-(2,3-dihydro-1H-inden-5-oxycarbonyl)-4-trifluorophenylsulfonhydrazide] | > 1000 | 55.8 | 51.1 (0.1) % | –
Cc1cc(C)c(S(=O)(=O)N(Nc2ccccc2)C(=O)Oc2ccc3c(c2)CCC3)c(C)c1 [Example 28] | – | – | – | IC50 at 24 h [1]: > 1000 nM; IC50 (PGE2 production; Mus musculus): 58.6 nM; inhibition at 0.1 µM (PGE2 production; Mus musculus, compound at 0.1 μM): 57.2%
N-phenyl-N′-(4-benzyloxyphenoxycarbonyl)-2-mesitylenesulfonhydrazide [Example 17] | > 1000 | 81.5 | 60.0 (0.1) % | –
N-phenyl-N′-(4-phenoxyphenoxycarbonyl)-2-mesitylenesulfonhydrazide [Example 16] | > 1000 | 177 | 39.8 (0.1) % | –
